One may read the IC50 as the concentration needed to halve the response being measured.

The source of these data is article PMC4503722, “Novel Phenotypic Outcomes Identified for a Public Collection of Approved Drugs from a Publicly Accessible Panel of Assays” (PLoS ONE, 2015).

In one assay the test system is HeLa cells. Briefly: cells. Conditions: for Hela CellCycMod PI S Phase IC50/EC50: assay number 15. It is filed as cell-based.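 For Hela CellCycMod PI 4N summarized IC50: value tracks stimulation of 4N DNA content.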
In a further assay the test system is SNU-C1. Briefly: cells. Conditions: assay number 30, basal; for IC50: read-out: Basal_Viability ATP SNU-C1 summarized IC50. It is filed as cell-based.
In the next assay the target is T1, hp70S6K1 (RPS6KB1) (Homo sapiens, UniProt P23443).
T1 construct: purchased Cerep (LANCE kinase assay platform, contract assay)
Description: Cerep LANCE kinase assay hp70S6K1 (S1 assay 31). The settings on record: assay number 31; for IC50: read-out: hp70S6K1 LANCE summarized IC50. It is filed as biochemical.

A further assay deals with T2, hFLT3 (Homo sapiens, UniProt P36888).
T2 construct: purchased Cerep (LANCE kinase assay platform, contract assay)
Briefly: Cerep LANCE kinase assay hFLT3 (S1 assay 35). It is filed as biochemical. Conditions: assay number 35; for IC50: read-out: hFLT3 LANCE summarized IC50.

The test system of the next assay is RKO. Briefly: cells. It is filed as cell-based. Conditions: assay number 29; for IC50: read-out: Basal_Viability ATP RKO summarized IC50.
Another assay concerns HT-29. Briefly: cells. Conditions: assay number 28; for IC50: read-out: Basal_Viability ATP HT-29 summarized IC50. It is filed as cell-based.
For the next assay, the system named is SW480. Description: cells. It is filed as cell-based. Conditions: assay number 24; for IC50: read-out: Basal_Viability ATP SW480 summarized IC50.
In the next assay the target is T3, hKDR (Homo sapiens, UniProt P35968).
T3 construct: purchased Cerep (LANCE kinase assay platform, contract assay)
Briefly: Cerep LANCE kinase assay hKDR (S1 assay 32). It is filed as biochemical. Conditions: assay number 32; for IC50: read-out: hKDR LANCE summarized IC50. Background: In TR-FRET formats the signal depends on donor and acceptor labels being close together.

The subject of a further assay is Colo320. Briefly: cells. It is filed as cell-based. The settings on record: assay number 27; for IC50: read-out: Basal_Viability ATP Colo 320 summarized IC50.
Assay [1] concerns ECFC/ADSC co-culture cell nuclei number. The settings on record: for IC50: read-out: VEGF_ADSC\ECFC Angio Hoechst NucArea summarized IC50.
The next assay concerns HCT116. Description: cells. It is filed as cell-based. Conditions: assay number 25, basal; for IC50: read-out: Basal_Viability ATP HCT116 summarized IC50.
The target in another assay is T4, hGSK3b (Homo sapiens, UniProt P49841).
T4 construct: purchased Cerep (LANCE kinase assay platform, contract assay)
Briefly: Cerep LANCE kinase assay hGSK3b (S1 assay 34). The settings on record: assay number 34; for IC50: read-out: hGSK3b LANCE summarized IC50. It is filed as biochemical.

In the next assay the target is T5, hJAK2 (Homo sapiens, UniProt O60674).
T5 construct: purchased Cerep (LANCE kinase assay platform, contract assay)
Description: Cerep LANCE kinase assay hJAK2 (S1 assay 33). It is filed as biochemical. The settings on record: assay number 33; for IC50: read-out: hJAK2 LANCE summarized IC50.

In assay [2] the test system is HCT116 cells treated with a GSK3β inhibitor. Description: cells. Conditions: assay number 26; GSK3b inhibitor pretreated; read-out: GSK3b inh pretreated_Viability ATP HCT116 summarized IC50. It is filed as cell-based.
The next assay relates to DLD-1. Description: cells. It is filed as cell-based. The settings on record: assay number 23; for IC50: read-out: Basal_Viability ATP DLD-1 summarized IC50.
In assay [3] the test system is endothelial tube formation in co-cultures of ECFCs and ADSCs treated with VEGF. Briefly: cells. It is filed as cell-based, human. Conditions: for IC50: read-out: VEGF_ADSC\ECFC Angio CD31 TubeArea summarized IC50.
The mark [4] stands for this setting: assay number 14, 2N, read-out: Hela CellCycMod PI 2N summarized IC50.
[5] abbreviates: assay number 16, 4N, read-out: Hela CellCycMod PI 4N summarized IC50.
Where [6] appears, read: assay number 17, MI, read-out: Hela CellCycMod PI MI summarized IC50.

Read-outs that look alike come from different tables or passages of the source.

T3 sequence (P35968 20-1356): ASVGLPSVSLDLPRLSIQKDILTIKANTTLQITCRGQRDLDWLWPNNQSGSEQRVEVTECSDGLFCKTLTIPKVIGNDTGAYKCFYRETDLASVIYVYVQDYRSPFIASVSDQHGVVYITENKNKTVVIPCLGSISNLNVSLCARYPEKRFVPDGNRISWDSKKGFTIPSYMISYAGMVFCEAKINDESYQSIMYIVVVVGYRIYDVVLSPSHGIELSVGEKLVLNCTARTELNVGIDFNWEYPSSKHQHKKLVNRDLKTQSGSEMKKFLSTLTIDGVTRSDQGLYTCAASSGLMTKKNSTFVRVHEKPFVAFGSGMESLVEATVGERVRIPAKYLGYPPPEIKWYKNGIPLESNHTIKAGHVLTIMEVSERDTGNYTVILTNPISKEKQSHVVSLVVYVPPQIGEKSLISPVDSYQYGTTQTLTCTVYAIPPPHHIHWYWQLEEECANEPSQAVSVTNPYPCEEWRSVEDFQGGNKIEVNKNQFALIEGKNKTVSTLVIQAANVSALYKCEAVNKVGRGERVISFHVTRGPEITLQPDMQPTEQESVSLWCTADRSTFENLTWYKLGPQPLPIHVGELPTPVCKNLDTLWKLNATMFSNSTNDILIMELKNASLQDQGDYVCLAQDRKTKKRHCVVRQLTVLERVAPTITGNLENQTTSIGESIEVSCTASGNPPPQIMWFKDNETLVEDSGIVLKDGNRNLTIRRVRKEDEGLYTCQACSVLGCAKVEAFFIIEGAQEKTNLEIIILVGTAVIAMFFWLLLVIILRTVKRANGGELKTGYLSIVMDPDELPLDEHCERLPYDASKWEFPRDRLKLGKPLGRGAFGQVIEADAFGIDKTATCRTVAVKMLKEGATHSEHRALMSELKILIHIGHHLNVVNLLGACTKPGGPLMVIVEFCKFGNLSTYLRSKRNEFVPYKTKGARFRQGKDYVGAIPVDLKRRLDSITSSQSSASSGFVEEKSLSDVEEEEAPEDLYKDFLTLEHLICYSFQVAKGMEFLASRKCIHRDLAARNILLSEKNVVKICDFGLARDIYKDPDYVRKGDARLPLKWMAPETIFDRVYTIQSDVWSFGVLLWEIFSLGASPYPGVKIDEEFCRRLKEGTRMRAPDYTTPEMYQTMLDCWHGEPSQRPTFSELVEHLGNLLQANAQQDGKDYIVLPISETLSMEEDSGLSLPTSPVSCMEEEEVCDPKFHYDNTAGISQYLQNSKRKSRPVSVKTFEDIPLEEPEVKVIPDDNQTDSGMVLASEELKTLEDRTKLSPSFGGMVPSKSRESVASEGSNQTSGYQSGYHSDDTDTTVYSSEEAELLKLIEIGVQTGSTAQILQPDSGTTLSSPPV
T5 sequence (O60674 whole entry): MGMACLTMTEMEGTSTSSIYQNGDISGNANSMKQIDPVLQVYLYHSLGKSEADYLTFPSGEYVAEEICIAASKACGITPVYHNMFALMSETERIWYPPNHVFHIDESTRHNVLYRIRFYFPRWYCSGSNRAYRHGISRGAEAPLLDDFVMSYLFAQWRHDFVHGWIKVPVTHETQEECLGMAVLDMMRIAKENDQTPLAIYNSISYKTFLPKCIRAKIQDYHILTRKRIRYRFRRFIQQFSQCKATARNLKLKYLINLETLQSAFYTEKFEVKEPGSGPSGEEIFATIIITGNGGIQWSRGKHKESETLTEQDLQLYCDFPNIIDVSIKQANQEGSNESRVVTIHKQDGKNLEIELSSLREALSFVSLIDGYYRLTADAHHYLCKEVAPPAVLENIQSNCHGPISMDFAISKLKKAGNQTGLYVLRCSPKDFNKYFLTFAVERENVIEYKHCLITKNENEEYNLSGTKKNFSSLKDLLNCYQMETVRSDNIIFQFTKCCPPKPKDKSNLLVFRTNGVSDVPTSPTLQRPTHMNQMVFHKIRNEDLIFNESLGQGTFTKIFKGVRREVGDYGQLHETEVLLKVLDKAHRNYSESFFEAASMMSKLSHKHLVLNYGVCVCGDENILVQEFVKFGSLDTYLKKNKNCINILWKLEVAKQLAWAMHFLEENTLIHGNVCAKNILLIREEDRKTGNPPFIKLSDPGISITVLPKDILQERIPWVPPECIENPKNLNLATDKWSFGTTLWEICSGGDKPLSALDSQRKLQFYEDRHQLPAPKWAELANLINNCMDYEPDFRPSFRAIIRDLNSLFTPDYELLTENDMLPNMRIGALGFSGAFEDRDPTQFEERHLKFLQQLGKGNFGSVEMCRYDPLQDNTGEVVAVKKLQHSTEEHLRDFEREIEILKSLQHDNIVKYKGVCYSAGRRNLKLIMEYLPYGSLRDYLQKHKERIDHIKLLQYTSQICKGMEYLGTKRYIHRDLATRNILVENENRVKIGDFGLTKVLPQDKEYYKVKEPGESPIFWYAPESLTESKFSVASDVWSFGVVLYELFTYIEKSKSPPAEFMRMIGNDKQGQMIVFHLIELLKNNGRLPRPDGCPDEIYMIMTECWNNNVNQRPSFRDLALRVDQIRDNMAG
T4 sequence (P49841 whole entry): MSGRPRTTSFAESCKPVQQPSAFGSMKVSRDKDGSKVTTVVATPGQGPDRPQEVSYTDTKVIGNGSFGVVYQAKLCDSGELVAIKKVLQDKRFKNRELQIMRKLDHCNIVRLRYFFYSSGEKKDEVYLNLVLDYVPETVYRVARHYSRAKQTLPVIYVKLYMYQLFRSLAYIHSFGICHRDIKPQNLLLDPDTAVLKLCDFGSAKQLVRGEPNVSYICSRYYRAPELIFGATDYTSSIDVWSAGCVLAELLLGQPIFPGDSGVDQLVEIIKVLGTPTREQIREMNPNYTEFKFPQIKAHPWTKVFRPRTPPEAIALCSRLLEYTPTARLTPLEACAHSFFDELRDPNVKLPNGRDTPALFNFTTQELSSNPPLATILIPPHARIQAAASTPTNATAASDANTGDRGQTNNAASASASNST
T1 sequence (P23443 whole entry): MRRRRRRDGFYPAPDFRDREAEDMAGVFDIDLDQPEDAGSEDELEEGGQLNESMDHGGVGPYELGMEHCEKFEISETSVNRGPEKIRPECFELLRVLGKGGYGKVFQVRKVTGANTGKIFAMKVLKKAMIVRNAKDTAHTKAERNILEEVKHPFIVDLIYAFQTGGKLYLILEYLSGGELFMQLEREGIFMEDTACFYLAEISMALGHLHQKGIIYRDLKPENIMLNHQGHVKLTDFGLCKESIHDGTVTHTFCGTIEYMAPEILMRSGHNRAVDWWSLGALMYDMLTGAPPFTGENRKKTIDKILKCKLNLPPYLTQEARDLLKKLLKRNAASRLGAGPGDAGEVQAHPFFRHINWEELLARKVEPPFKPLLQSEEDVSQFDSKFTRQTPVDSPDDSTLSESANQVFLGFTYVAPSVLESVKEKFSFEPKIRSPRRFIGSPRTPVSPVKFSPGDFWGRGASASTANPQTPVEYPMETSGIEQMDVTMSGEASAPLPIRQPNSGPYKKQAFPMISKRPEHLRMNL
T2 sequence (P36888 27-993): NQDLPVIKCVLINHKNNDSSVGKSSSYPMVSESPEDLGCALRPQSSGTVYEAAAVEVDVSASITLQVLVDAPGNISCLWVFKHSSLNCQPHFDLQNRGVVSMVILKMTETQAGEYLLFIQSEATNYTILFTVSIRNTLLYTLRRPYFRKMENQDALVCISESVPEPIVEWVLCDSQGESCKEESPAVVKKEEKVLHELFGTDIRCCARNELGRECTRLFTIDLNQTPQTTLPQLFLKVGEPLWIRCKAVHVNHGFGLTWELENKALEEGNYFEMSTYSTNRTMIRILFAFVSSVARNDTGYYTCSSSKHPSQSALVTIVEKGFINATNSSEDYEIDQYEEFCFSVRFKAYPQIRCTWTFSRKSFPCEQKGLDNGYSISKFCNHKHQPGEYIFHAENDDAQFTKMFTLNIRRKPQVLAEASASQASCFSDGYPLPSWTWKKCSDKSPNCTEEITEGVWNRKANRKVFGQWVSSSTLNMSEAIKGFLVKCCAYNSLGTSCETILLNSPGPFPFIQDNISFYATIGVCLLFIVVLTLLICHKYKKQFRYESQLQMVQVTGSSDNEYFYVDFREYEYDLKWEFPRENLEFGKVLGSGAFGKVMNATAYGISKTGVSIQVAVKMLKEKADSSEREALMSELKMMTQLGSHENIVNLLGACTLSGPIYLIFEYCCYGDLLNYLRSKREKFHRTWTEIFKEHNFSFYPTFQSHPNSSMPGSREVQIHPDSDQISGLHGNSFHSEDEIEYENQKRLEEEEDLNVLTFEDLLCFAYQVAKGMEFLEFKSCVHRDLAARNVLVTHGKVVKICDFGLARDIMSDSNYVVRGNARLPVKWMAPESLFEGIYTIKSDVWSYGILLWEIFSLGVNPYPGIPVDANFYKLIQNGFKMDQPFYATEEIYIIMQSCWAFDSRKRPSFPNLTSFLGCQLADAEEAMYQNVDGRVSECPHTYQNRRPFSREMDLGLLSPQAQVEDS

`S=c1nc[nH]c2nc[nH]c12` [NCGC00094717-06]: the half-maximal inhibitory concentration (IC50) is above 10 µM in the assay with HeLa cells (setting [4]); above 10 µM in the assay with HeLa cells (setting [5]); above 10 µM in the assay on HeLa cells (setting [6]); above 10 µM in the assay on HeLa cells (assay number 18, cell number, read-out: Hela CellCycMod PI Cell Number summarized IC50); above 20 µM with SNU-C1; above 20 µM at hp70S6K1 (RPS6KB1). For the same compound, the 50% inhibitory concentration (IC50) on hFLT3 is above 20 µM; in the assay on RKO (basal) it was 0.659 µM; in the assay with HT-29 (basal), 0.635 µM; with SW480 (basal), 1.04 µM; at hKDR, above 20 µM; with Colo320 (basal), 1.3 µM. Moreover, the concentration for half-maximal inhibition (IC50) in [1] is above 10 µM; in the assay with HCT116, 0.259 µM; on hGSK3b, above 20 µM; on hJAK2, above 20 µM; in assay [2], 1.42 µM; in the assay on DLD-1 (basal) it was 0.26 µM. Also, the half-maximal inhibitory concentration (IC50) in [3] came out at 0.915 µM.

Turning to `Oc1c(Cl)cc(Cl)c2cccnc12` [NCGC00095264-04], the IC50 in the assay on HeLa cells (setting [4]) was above 10 µM; with HeLa cells (setting [5]), above 10 µM; in the assay with HeLa cells (setting [6]), above 10 µM; with SNU-C1, 0.495 µM; on hp70S6K1 (RPS6KB1), above 20 µM; on hFLT3, above 20 µM. The IC50 was 0.0627 µM in the assay on RKO (basal); above 20 µM in the assay on HT-29 (basal); 0.0438 µM in the assay on SW480 (basal); above 20 µM at hKDR; 0.0493 µM in the assay with Colo320 (basal); above 10 µM in assay [1]. In addition, the IC50 in the assay with HCT116 was 0.0475 µM; at hGSK3b it was above 20 µM; at hJAK2, above 20 µM; in [2], 0.0393 µM; in the assay on DLD-1 (basal), 0.409 µM; in [3] it was 2 µM.

On to `COc1ccc(-c2ccc3cc(C(=O)O)ccc3c2)cc1C12CC3CC(CC(C3)C1)C2` [NCGC00164617-04], for which the “Hela CellCycMod PI 2N IC50/EC50” value in the assay on HeLa cells (assay number 14, 2N) was above 10 µM. In addition, in the assay on HeLa cells, the “Hela CellCycMod PI S Phase IC50/EC50” value is listed as above 10 µM. In addition, the “Hela CellCycMod PI 4N IC50/EC50” value with HeLa cells (assay number 16, 4N) is given as above 10 µM. Also, the “Hela CellCycMod PI MI IC50/EC50” value with HeLa cells (assay number 17, MI) is on record as above 10 µM. Moreover, in the assay with HeLa cells (assay number 18, cell number), the “Hela CellCycMod PI Cell Number IC50/EC50” value is 5.4943 µM. Also, in the assay on SNU-C1, the “Basal_Viability ATP SNU-C1 IC50/EC50” value is given as 1.7798 µM. Further, on hp70S6K1 (RPS6KB1), the “hp70S6K1 LANCE IC50/EC50” value is reported as above 20 µM. For the same compound, the “hFLT3 LANCE IC50/EC50” value on hFLT3 is on record as above 20 µM. The “Basal_Viability ATP RKO IC50/EC50” value in the assay on RKO (basal) was found to be 0.4435 µM. The “Basal_Viability ATP HT-29 IC50/EC50” value in the assay on HT-29 (basal) is recorded as 1.1248 µM. The “Basal_Viability ATP SW480 IC50/EC50” value in the assay on SW480 (basal) came out at 0.4051 µM. Further, on hKDR, the “hKDR LANCE IC50/EC50” value turned out to be 7.1 µM. Also, the “Basal_Viability ATP Colo 320 IC50/EC50” value in the assay on Colo320 (basal) was 0.7871 µM. In addition, the “VEGF_ADSC\ECFC Angio Hoechst NucArea IC50/EC50” value in assay [1] is listed as above 10 µM. Also, the “Basal_Viability ATP HCT116 IC50/EC50” value in the assay on HCT116 is given as 0.5897 µM. On hGSK3b, the “hGSK3b LANCE IC50/EC50” value came out at 7.25 µM. At hJAK2, the “hJAK2 LANCE IC50/EC50” value came out at 5.57 µM. The “Basal_Viability ATP DLD-1 IC50/EC50” value with DLD-1 (basal) is listed as 0.5971 µM. The “VEGF_ADSC\ECFC Angio CD31 TubeArea IC50/EC50” value in assay [3] was 0.5236 µM.

Regarding `CC(C)(C)C1CCC(CC2=C(O)c3ccccc3C(=O)C2=O)CC1` (centres unmarked) [NCGC00253624-01], in the assay on HeLa cells (assay number 14, 2N), the “Hela CellCycMod PI 2N IC50/EC50” value is above 10 µM. Besides, in the assay on HeLa cells, the “Hela CellCycMod PI S Phase IC50/EC50” value was above 10 µM. In the assay on HeLa cells (assay number 16, 4N), the “Hela CellCycMod PI 4N IC50/EC50” value was above 10 µM. Also, in the assay on HeLa cells (assay number 17, MI), the “Hela CellCycMod PI MI IC50/EC50” value was above 10 µM. Moreover, the “Hela CellCycMod PI Cell Number IC50/EC50” value with HeLa cells (assay number 18, cell number) was above 10 µM. Also, at hp70S6K1 (RPS6KB1), the “hp70S6K1 LANCE IC50/EC50” value was above 20 µM. For the same compound, the “hFLT3 LANCE IC50/EC50” value on hFLT3 is above 20 µM. For the same compound, the “Basal_Viability ATP RKO IC50/EC50” value in the assay on RKO worked out at 0.1329 µM. In the assay with HT-29, the “Basal_Viability ATP HT-29 IC50/EC50” value is on record as 3.3906 µM. Besides, the “Basal_Viability ATP SW480 IC50/EC50” value in the assay on SW480 was determined as 0.2047 µM. Moreover, the “hKDR LANCE IC50/EC50” value at hKDR is given as above 20 µM. Besides, the “Basal_Viability ATP Colo 320 IC50/EC50” value in the assay on Colo320 amounted to 0.2548 µM. The “VEGF_ADSC\ECFC Angio Hoechst NucArea IC50/EC50” value in [1] was above 10 µM. Besides, in the assay on HCT116, the “Basal_Viability ATP HCT116 IC50/EC50” value is recorded as 0.2268 µM. The “hGSK3b LANCE IC50/EC50” value on hGSK3b is above 20 µM. In addition, the “hJAK2 LANCE IC50/EC50” value at hJAK2 is on record as above 20 µM. The “Basal_Viability ATP DLD-1 IC50/EC50” value in the assay with DLD-1 was determined as 0.2185 µM. For the same compound, in assay [3], the “VEGF_ADSC\ECFC Angio CD31 TubeArea IC50/EC50” value was 1.9625 µM.
